The numbers were not newly measured in patent publication US10058532B2, “Methods of preventing progression to type 2 diabetes mellitus” (Vivus, Inc., priority 2013, dated 2018), which cites them from elsewhere.

Read-outs that look alike come from different tables or passages of the source.

Consider `CC1(C)O[C@@H]2[C@@H](CO[C@@]3(COS(N)(=O)=O)OC(C)(C)O[C@@H]23)O1` [Topiramate, 2,3:4,5-di-O-isopropylidene-β-D-fructopyranose sulfamate], for which the solubility entry by setting is: (methanol and acetone) “freely soluble”; (pH 1 to pH 8 aqueous solutions) “slightly soluble”; (pH 9 to pH 12 aqueous solutions) “sparingly soluble”.
